In patent US11266645B2, “Methods for treating lymphoma” (Alexion Pharmaceuticals, Inc., priority 2018, dated 2022):
Like-named read-outs stand apart in the source and are kept apart here.

Key:
[1] = system: patients with relapsed or refractory PTCL; conditions: cited from earlier work; for ORR / CR / DOR: relapsed/refractory PTCL; for ORR: brentuximab only anaplastic large cell lymphoma
[2] = system: Primary CLL cells; test: Primary CLL cells with IL-4/CD40L, immunoblotting and annexin V/PI viability; assay type: cell-based, human; conditions: for IL-4/CD40L induced Mcl-1 and Bcl-XL expression: 1 μM
Procedure: Combination studies were performed with 10 or 100 nM venetoclax or 300 and 1000 nM S63846. Cell viability was assessed by annexin V/PI using flow cytometry and changes in protein expression by immunoblotting.

Row | Compound | Grade 3/4 AEs: Fatigue ([1]; Table 1) | Grade 3/4 AEs: Thrombocytopenia ([1]; Table 1) | Toxicities ≥ Grade 3: Anemia ([1]; r/r PTCL, Table 2) | Toxicities ≥ Grade 3: Asthenia/Fatigue ([1]; r/r PTCL, Table 2) | Toxicities ≥ Grade 3: Pyrexia ([1]; r/r PTCL, Table 2) | Toxicities ≥ Grade 3: Thrombocytopenia ([1]; r/r PTCL, Table 2) | ORR [1] | CR [1] | DOR [1] | IL-4/CD40L induced Mcl-1 and Bcl-XL expression [2] | Toxicities ≥ Grade 3: Neutropenia ([1]; r/r PTCL, Table 2) | further results
1 | O=C(/C=C/c1cccc(S(=O)(=O)Nc2ccccc2)c1)NO [Belinostat] | Fatigue: 5% | Thrombocytopenia: 7% | 11% | 5% | 2% | 7% | ORR: 26% | (11% CR) | DOR: 8.4 months | – | – | Grade 3/4 AEs: Anemia ([1]; Table 1): Anemia: 11%; Toxicities ≥ Grade 3: Infection ([1]; r/r PTCL, Table 2): 8.5%^; ORR ([1]; listed as belinostat): approximately 25%
2 | NC(=O)c1cnc(N[C@@H]2CCCC[C@@H]2N)nc1Nc1cccc(-n2nccn2)c1 [PRT062607, reference compound] | – | – | – | – | – | – | – | – | – | significantly reduced | – | –
3 | C#CCC(Cc1cnc2nc(N)nc(N)c2n1)c1ccc(C(=O)N[C@@H](CCC(=O)O)C(=O)O)cc1 (some centres unmarked) [Pralatrexate] | Fatigue: 7% | Thrombocytopenia: 33% | 17% | 8% | 2% | 33% | ORR: 27% | (6% CR) | DOR: 9.4 months | – | 20% | Grade 3/4 AEs: Anemia ([1]; Table 1): Anemia: 17%; Grade 3/4 AEs: Mucositis ([1]; Table 1): Mucositis: 21%; Grade 3/4 AEs: Neutropenia ([1]; Table 1): Neutropenia: 20%; Toxicities ≥ Grade 3: Leukopenia ([1]; r/r PTCL, Table 2): 7%; Toxicities ≥ Grade 3: Mucositis ([1]; r/r PTCL, Table 2): 23%; Toxicities ≥ Grade 3: Sepsis ([1]; r/r PTCL, Table 2): 5%; ORR ([1]; listed as pralatrexate): approximately 25%
4 | C/C=C1\NC(=O)[C@H]2CSSCC/C=C/[C@H](CC(=O)N[C@H](C(C)C)C(=O)N2)OC(=O)[C@H](C(C)C)NC1=O [Romidepsin] | Fatigue: 13% | Thrombocytopenia: 21% | 11-28% | 8-19% | 6-17% | 24-36% | – | – | – | – | 20-47% | Grade 3/4 AEs: Nausea ([1]; Table 1): Nausea: 4%; Toxicities ≥ Grade 3: Infection ([1]; r/r PTCL, Table 2): 19%; Toxicities ≥ Grade 3: Leukopenia ([1]; r/r PTCL, Table 2): 6-45%; Toxicities ≥ Grade 3: Sepsis ([1]; r/r PTCL, Table 2): 5%
5 | Cc1c(-c2c(-c3ccc(F)o3)sc3ncnc(O[C@H](Cc4ccccc4OCc4ccnn4CC(F)(F)F)C(=O)O)c23)ccc(OCCN2CCN(C)CC2)c1Cl [S63845, reference compound] | – | – | – | – | – | – | – | – | – | – | – | synergy with BCR kinase inhibitors including cerdulatinib, CLL cell death ([2]; CLL cells): synergized
6 | c1cn2cc(-c3ccc4cn[nH]c4c3)nc(Nc3ccc(N4CCOCC4)cc3)c2n1 [entospletinib, reference compound] | – | – | – | – | – | – | – | – | – | significantly reduced | – | –
7 | CC[C@H](Nc1ncnc2[nH]cnc12)c1nc2cccc(F)c2c(=O)n1-c1ccccc1 [idelalisib, reference compound] | – | – | – | – | – | – | – | – | – | significantly reduced | – | –
8 | Brentuximab | – | Thrombocytopenia: 10% | 2% | 4% | 2% | 10% | ORR: 86% | (57% CR) | DOR: 12.6 months | – | 21% | Grade 3/4 AEs: Neutropenia ([1]; Table 1): Neutropenia: 21%; Grade 3/4 AEs: Peripheral sensory neuropathy ([1]; Table 1): Peripheral sensory neuropathy: 10%; Toxicities ≥ Grade 3: Diarrhea/Colitis ([1]; r/r PTCL, Table 2): 3%
